According to US11083196B2, “Microbiocidal oxadiazole derivatives” (SYNGENTA PARTICIPATIONS AG, priority 2016, dated 2021):

Tests used:
[1] = tested on: Glomerella lagenarium (Colletotrichum lagenarium); test: Fungicidal activity against Glomerella lagenarium (Colletotrichum lagenarium), liquid culture / cucumber / preventative (anthracnose); type: cell-based; details: Colletotrichum orbiculare, liquid culture (PDB), growth inhibition measured photometrically 3-4 days after application, compared to untreated control
Procedure: Mycelia fragments or conidia suspensions of a fungus, prepared either freshly from liquid cultures of the fungus or from cryogenic storage, are directly mixed into nutrient broth. DMSO solutions of the test compound (max. 10 mg/ml) is diluted with 0.025% Tween20 by a factor of 50 and 10 μl of this solution is pipetted into a microtiter plate (96-well format). The nutrient broth containing the fungal spores/mycelia fragments is then added to give an end concentration of the tested compound. The test plates are incubated in the dark at 24° C. and 96% relative humidity. The inhibition of fungal growth is determined photometrically after 2 to 7 days, depending on the pathosystem, and percent antifungal activity relative to the untreated check is calculated. Conidia of the fungus from cryogenic storage are directly mixed into nutrient broth (PDB potato dextrose broth). After placing a (DMSO) solution of test compound into a microtiter plate (96-well format), the nutrient broth containing the fungal spores is added. The test plates are incubated at 24° C. and the inhibition of growth is measured photometrically 3-4 days after application.

[2] = tested on: Puccinia recondita f. sp. tritici; test: Fungicidal activity against Puccinia recondita f. sp. tritici / wheat / leaf disc preventative (brown rust); type: in vivo; details: foliar, 168 h, wheat leaf segments cv. Kanzler, inoculated 1 day after application, assessed 7-9 days after application, compared to untreated control
Procedure: Leaf disks or leaf segments of various plant species are cut from plants grown in a greenhouse. The cut leaf disks or segments are placed in multiwell plates (24-well format) onto water agar. The leaf disks are sprayed with a test solution before (preventative) or after (curative) inoculation. Compounds to be tested are prepared as DMSO solutions (max. 10 mg/ml) which are diluted to the appropriate concentration with 0.025% Tween20 just before spraying. The inoculated leaf disks or segments are incubated under defined conditions (temperature, relative humidity, light, etc.) according to the respective test system. A single evaluation of disease level is carried out 3 to 14 days after inoculation, depending on the pathosystem. Percent disease control relative to the untreated check leaf disks or segments is then calculated. Wheat leaf segments cv. Kanzler are placed on agar in multiwell plates (24-well format) and sprayed with the formulated test compound diluted in water. The leaf disks are inoculated with a spore suspension of the fungus 1 day after application. The inoculated leaf segments are incubated at 19° C. and 75% rh under a light regime of 12 h light/12 h darkness in a climate cabinet and the activity of a compound is assessed as percent disease control compared to untreated when an appropriate level of disease damage appears in untreated check leaf segments (7-9 days after application).

Row | SMILES | melting point [°C] | inhibition of growth at 20 ppm [1] [%] | pest or weed control at 200 ppm [2] [%]
1 | FC(F)(F)c1nc(-c2ccc(C3CC(C4CCCCC4)=NO3)cc2)no1 (stereo not drawn) [Compound A-7, 3-[4-(3-cyclohexyl-4,5-dihydroisoxazol-5-yl)phenyl]-5-(trifluoromethyl)-1,2,4-oxadiazole] | 79 to 82 | ≥ 80 | 
2 | FC(F)(F)C1=NOC(c2ccc(-c3noc(C(F)(F)F)n3)cc2)C1 (stereo not drawn) [Compound A-14, 5-(trifluoromethyl)-3-[4-[3-(trifluoromethyl)-4,5-dihydroisoxazol-5-yl]phenyl]-1,2,4-oxadiazole] | 65 to 69 | ≥ 80 | 
3 | Cl.FC(F)(F)c1nc(-c2ccc(C3CCCN3)cc2)no1 (stereo not drawn) [Compound A-34, 3-(4-pyrrolidin-1-ium-2-ylphenyl)-5-(trifluoromethyl)-1,2,4-oxadiazole; chloride] | 154.4 to 158.5 |  | ≥ 80
4 | COC(=O)C1(c2ccc(-c3noc(C(F)(F)F)n3)cc2)C(C)=C(C#N)C(=O)N1C (stereo not drawn) [Compound A-41, methyl 4-cyano-1,3-dimethyl-5-oxo-2-[4-[5-(trifluoromethyl)-1,2,4-oxadiazol-3-yl]phenyl]pyrrole-2-carboxylate] |  | ≥ 80 | 
5 | COc1ccccc1C1CC(c2ccc(-c3noc(C(F)(F)F)n3)cc2)=NO1 (stereo not drawn) [Compound A-48, 3-[4-[5-(2-methoxyphenyl)-4,5-dihydroisoxazol-3-yl]phenyl]-5-(trifluoromethyl)-1,2,4-oxadiazole] |  | ≥ 80 | 
6 | FC(F)(F)c1nc(-c2ccc(C3CC(c4ccncc4)=NO3)cc2)no1 (stereo not drawn) [Compound A-49, 3-[4-[3-(4-pyridyl)-4,5-dihydroisoxazol-5-yl]phenyl]-5-(trifluoromethyl)-1,2,4-oxadiazole] |  | ≥ 80 | 
7 | FC(F)(F)c1nc(-c2ccc(C3CC(c4ccccc4)=NO3)cc2)no1 (stereo not drawn) [Compound A-50, 3-[4-(3-phenyl-4,5-dihydroisoxazol-5-yl)phenyl]-5-(trifluoromethyl)-1,2,4-oxadiazole] | 139 to 142 |  | 
8 | FC(F)(F)c1nc(-c2ccc(N3CCCCO3)cc2)no1 [Compound B-1, 2-[4-[5-(trifluoromethyl)-1,2,4-oxadiazol-3-yl]phenyl]oxazinane] | 94 to 96 |  | 
9 | FC(F)(F)c1nc(-c2ccc(-c3cc(C4CC4)no3)cc2)no1 [Compound C-10, 3-[4-(3-cyclopropylisoxazol-5-yl)phenyl]-5-(trifluoromethyl)-1,2,4-oxadiazole] | 143 to 146 |  | 
10 | FC(F)(F)c1nc(-c2ccc(-c3nc(-c4cccnc4)cs3)cc2)no1 [Compound C-12, 3-[4-[4-(3-pyridyl)thiazol-2-yl]phenyl]-5-(trifluoromethyl)-1,2,4-oxadiazole] | 142 to 143 |  | 
11 | CCNC(=O)Nc1cccc(-c2ccc(-c3noc(C(F)(F)F)n3)cc2)n1 [Compound D-1, 1-ethyl-3-[6-[4-[5-(trifluoromethyl)-1,2,4-oxadiazol-3-yl]phenyl]-2-pyridyl]urea] | 200 to 205 |  | 
12 | CCNC(=O)Nc1ccc(-c2ccc(-c3noc(C(F)(F)F)n3)cc2)cn1 [Compound D-2, 1-ethyl-3-[5-[4-[5-(trifluoromethyl)-1,2,4-oxadiazol-3-yl]phenyl]-2-pyridyl]urea] | 190 to 195 |  | 
13 | CCNC(=O)Nc1cc(-c2ccc(-c3noc(C(F)(F)F)n3)cc2)ccn1 [Compound D-3, 1-ethyl-3-[4-[4-[5-(trifluoromethyl)-1,2,4-oxadiazol-3-yl]phenyl]-2-pyridyl]urea] | 180 to 185 |  | 
14 | O=C(Nc1cccc(-c2ccc(-c3noc(C(F)(F)F)n3)cc2)n1)C(F)(F)F [Compound D-4, 2,2,2-trifluoro-N-[6-[4-[5-(trifluoromethyl)-1,2,4-oxadiazol-3-yl]phenyl]-2-pyridyl]acetamide] | 125 to 130 | ≥ 80 | 
15 | Fc1cccc(-c2ccc(-c3noc(C(F)(F)F)n3)cc2)n1 [Compound D-5, 3-[4-(6-fluoro-2-pyridyl)phenyl]-5-(trifluoromethyl)-1,2,4-oxadiazole] | 75 to 80 | ≥ 80 | 
16 | CCNc1cccc(-c2ccc(-c3noc(C(F)(F)F)n3)cc2)n1 [Compound D-8, N-ethyl-6-[4-[5-(trifluoromethyl)-1,2,4-oxadiazol-3-yl]phenyl]pyridin-2-amine] | 120 to 125 | ≥ 80 | 

Row | SMILES | melting point [°C] | inhibition of growth at 20 ppm [1] [%] | pest or weed control at 200 ppm [2] [%]
17 | CCNc1cc(-c2ccc(-c3noc(C(F)(F)F)n3)cc2)ccn1 [Compound D-9, N-ethyl-4-[4-[5-(trifluoromethyl)-1,2,4-oxadiazol-3-yl]phenyl]pyridin-2-amine] | 130 to 135 |  | 
18 | O=C(C1CC1)N(C(=O)C1CC1)c1ccc(-c2ccc(-c3noc(C(F)(F)F)n3)cc2)cn1 [Compound D-10, N-(cyclopropanecarbonyl)-N-[5-[4-[5-(trifluoromethyl)-1,2,4-oxadiazol-3-yl]phenyl]-2-pyridyl]cyclopropane carboxamide] | 150 to 155 |  | 
19 | O=C(Nc1ccc(-c2ccc(-c3noc(C(F)(F)F)n3)cc2)cn1)C1CC1 [Compound D-11, N-[5-[4-[5-(trifluoromethyl)-1,2,4-oxadiazol-3-yl]phenyl]-2-pyridyl]cyclopropane carboxamide] | 175 to 180 |  | 
20 | O=C(Nc1ccc(-c2ccc(-c3noc(C(F)(F)F)n3)cc2)cn1)C(F)(F)F [Compound D-13, 2,2,2-trifluoro-N-[5-[4-[5-(trifluoromethyl)-1,2,4-oxadiazol-3-yl]phenyl]-2-pyridyl]acetamide] | 135 to 140 | ≥ 80 | 
21 | O=C(Nc1cccc(-c2ccc(-c3noc(C(F)(F)F)n3)cc2)n1)C1CC1 [Compound D-14, N-[6-[4-[5-(trifluoromethyl)-1,2,4-oxadiazol-3-yl]phenyl]-2-pyridyl]cyclopropane carboxamide] | 125 to 130 |  | 
22 | O=C(C1CC1)N(C(=O)C1CC1)c1cc(-c2ccc(-c3noc(C(F)(F)F)n3)cc2)ccn1 [Compound D-16, N-(cyclopropanecarbonyl)-N-[4-[4-[5-(trifluoromethyl)-1,2,4-oxadiazol-3-yl]phenyl]-2-pyridyl]cyclopropane carboxamide] | 120 to 125 |  | 
23 | O=C(Nc1cc(-c2ccc(-c3noc(C(F)(F)F)n3)cc2)ccn1)C1CC1 [Compound D-17, N-[4-[4-(5-(triftuoromethyl)-1,2,4-oxadiazol-3-yl]phenyl]-2-pyridyl]cyclopropane carboxamide] | 140 to 145 |  | 
24 | Nc1cc(-c2ccc(-c3noc(C(F)(F)F)n3)cc2)ccn1 [Compound D-18, 4-[4-[5-(trifluoromethyl)-1,2,4-oxadiazol-3-yl]phenyl]pyridin-2-amine] | 195 to 200 |  | 
25 | CCNc1ccc(-c2ccc(-c3noc(C(F)(F)F)n3)cc2)cn1 [Compound D-20, N-ethyl-5-[4-[5-(trifluoromethyl)-1,2,4-oxadiazol-3-yl]phenyl]pyridin-2-amine] | 120 to 125 |  | 
26 | FC(F)(F)c1nc(-c2ccc(-c3ccc(NC4CC4)nc3)cc2)no1 [Compound D-21, N-cyclopropyl-5-[4-[5-(trifluoromethyl)-1,2,4-oxadiazol-3-yl]phenyl]pyridin-2-amine] | 135 to 140 |  | 
27 | FC(F)(F)c1nc(-c2ccc(-c3cccc(Cl)n3)cc2)no1 [Compound D-22, 3-[4-(6-chloro-2-pyridyl)phenyl]-5-(trifluoromethyl)-1,2,4-oxadiazole] | 115 to 120 |  | 
28 | FC(F)(F)c1nc(-c2ccc(-c3ccc(N4CCOCC4)nc3)cc2)no1 [Compound D-23, 4-[5-[4-[5-(trifluoromethyl)-1,2,4-oxadiazol-3-yl]phenyl]-2-pyridyl]morpholine] | 150 to 155 |  | 
29 | FC(F)(F)c1nc(-c2ccc(-c3cccc(N4CCOCC4)n3)cc2)no1 [Compound D-24, 4-[6-[4-[5-(trifluoromethyl)-1,2,4-oxadiazol-3-yl]phenyl]-2-pyridyl]morpholine] | 100 to 105 |  | 
30 | FC(F)(F)c1nc(-c2ccc(-c3ccnc(N4CCOCC4)c3)cc2)no1 [Compound D-25, 4-[4-[4-[5-(trifluoromethyl)-1,2,4-oxadiazol-3-yl]phenyl]-2-pyridyl]morpholine] | 95 to 100 | ≥ 80 | 
31 | FC(F)(F)c1nc(-c2ccc(-c3ccc(Cl)nc3)cc2)no1 [Compound D-27, 3-[4-(6-chloro-3-pyridyl)phenyl]-5-(trifluoromethyl)-1,2,4-oxadiazole] | 140 to 145 |  | 
